From patent publication USRE48461E1, “Modulation of androgen receptor expression” (Ionis Pharmaceuticals, Inc., priority 2012, dated 2021)
Like-named read-outs stand apart in the source and are kept apart here. Oligonucleotides are written 5' to 3', each unit as a sugar letter and its base; * is a phosphorothioate linkage, no mark a phosphodiester; rarer units and linkages stand in square brackets, end groups in braces. Plain capitals give the bases only. k = constrained ethyl (cEt); [5mC] = 5-methylcytosine; d = 2'-deoxy (DNA)

Experiments:
AR mRNA [1] = assay: Antisense inhibition of human AR in HuVEC cells, single concentration (electroporation, qRT-PCR RTS3559); assay type: cell-based
Outline: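 AR mRNA levels were measured with human primer-probe set RTS3559 and adjusted for total RNA (RIBOGREEN). Cells were HuVEC, with each antisense oligonucleotide delivered by electroporation at one concentration.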

AR mRNA [2] = assay: Time-course AR mRNA expression in C4-2B cells (8, 24, 48 hours); assay type: cell-based, human; settings: for Percent expression of AR compared to the control group in 8 hours / Percent expression of AR compared to the control group in 24 hours / Percent expression of AR compared to the control group in 48 hours: C4-2B cells; for AR expression: C4-2B cells, 8, 24 and 48 hours
Description: C4-2B cells were plated at 1,000 cells per well in complete medium. […] After a treatment period of 8 hours, 24 hours, and 48 hours, AR expression was measured with primer probe set hAR-LTS00943.

C4-2B cells = assay: C4-2B cell proliferation, ASO in combination with MDV3100 (Example 19); assay type: cell-based, human; settings: for inhibition at 1 µM: Homo sapiens, PBS (no ASO) + MDV3100 1 μM, read-out: Percent inhibition of C4-2B cell proliferation
Description: C4-2B cells were plated at 1,500 cells per well. […] ISIS 347526 was included as a negative control. […] After a treatment period of 6 days, the proliferative capacity of the cancer cells was measured with CellTiter 96® AQueous One Solution Cell Proliferation kit (Promega), following the manufacturer's instructions. Results are presented in Table 46 as percent inhibition of proliferation, relative to non-treated cells. Treatment of the cells with ISIS 549372 or ISIS 549458 reduced proliferation of the cells more extensively than treatment with ISIS 554221.

full-length AR = assay: Western blot of full-length AR in C4-2B cells (time course); assay type: cell-based, human; settings: 24 hours and 48 hours, normalized to GAPDH
Description: Protein levels in the cells were also analyzed. The cells were harvested in RIPA buffer containing protease inhibitors. The presence of bands for full-length AR was detected by western blot using AR antibody (N-20, SC-816, Santa Cruz Biotechnology).

testosterone = assay: Serum testosterone levels in cynomolgus monkeys (ELISA); assay type: in vivo; settings: cynomolgus monkey, 40 mg/kg subcutaneously, 40 mg/kg
Description: Serum testosterone protein levels were measured in the plasma with an ELISA kit (Enzo Life Sciences), following the manufacturer's instructions.

[3] = cynomolgus monkey, in vivo
Description: Prior to the study, the monkeys were kept in quarantine for a 30-day period, during which the animals were observed daily for general health. The monkeys were 2-4 years old and weighed between 2 and 4 kg. Thirteen groups of four randomly assigned male cynomolgus monkeys each were injected subcutaneously with ISIS oligonucleotide or PBS. PBS solution or ISIS oligonucleotides, at a dose of 40 mg/kg, were administered with a loading regimen consisting of four doses on the first week of the study (days 1, 3, 5, and 7), followed by a maintenance regimen consisting of once weekly administration starting on Day 14 (weeks 2 to 6). Subcutaneous injections were performed in clock-wise rotations at 4 sites on the back; one site per dose. The injection sites were delineated by tattoo, while sedated using ketamine, and were separated by a minimum of 3 cm.
The concentrations of the full-length oligonucleotide in the kidney and the liver of select treatment groups were measured. The method used is a modification of previously published methods (Leeds et al., 1996; Geary et al., 1999) which consist of a phenol-chloroform (liquid-liquid) extraction followed by a solid phase extraction.

AR mRNA [4] = assay: AR mRNA expression in MDA-MB-453 breast cancer orthotopic model; assay type: in vivo, human; settings: Study 2; tumor tissue, normalized to human actin; 50 mg/kg s.c. 5 days per week for 2 weeks
[5] = cynomolgus monkey, in vivo, sc, 40 mg/kg
[6] = Table 19, 500 nM oligonucleotide, electroporation, approximately 24 hours, relative to untreated control
[7] = Table 20, 500 nM oligonucleotide, electroporation, approximately 24 hours, relative to untreated control
[8] = Table 21, 500 nM oligonucleotide, electroporation, approximately 24 hours, relative to untreated control
[9] = Table 22, 500 nM oligonucleotide, electroporation, approximately 24 hours, relative to untreated control
[10] = Table 23, 500 nM oligonucleotide, electroporation, approximately 24 hours, relative to untreated control
[11] = Table 24, 1,000 nM oligonucleotide, electroporation, approximately 24 hours, relative to untreated control
[12] = Table 25, 1,000 nM oligonucleotide, electroporation, approximately 24 hours, relative to untreated control
[13] = Table 27, 1,000 nM oligonucleotide, electroporation, approximately 24 hours, relative to untreated control
[14] = Table 28, 1,000 nM oligonucleotide, electroporation, approximately 24 hours, relative to untreated control

## 549372 (kA*kA*kG*dT*dT*dG*dT*dA*dG*dT*dA*dG*dT*k[5mC]*kG*k[5mC]) [compound 549372]
AR mRNA [1]; 500 nM ASO, electroporation, ~24 h, Table 1
  % inhibition: 92%
AR mRNA [1]; 500 nM ASO, ~24 h, Table 16
  % inhibition: 47%
AR mRNA [1]; 500 nM ASO, ~24 h, Table 17
  % inhibition: 40%
AR mRNA [1]; 500 nM ASO, ~24 h, Table 18
  % inhibition: 26%
AR mRNA [1]; 1,000 nM ASO, ~24 h, Table 13
  % inhibition: 64%
AR mRNA [1]; 1,000 nM ASO, ~24 h, Table 26
  % inhibition: 58%
AR mRNA [1]; [6]
  % inhibition: 39%
AR mRNA [1]; [7]
  % inhibition: 23%
AR mRNA [1]; [8]
  % inhibition: 37%
AR mRNA [1]; [9]
  % inhibition: 46%
AR mRNA [1]; [10]
  % inhibition: 25%
AR mRNA [1]; [11]
  % inhibition: 63%
AR mRNA [1]; [12]
  % inhibition: 59%
AR mRNA [1]; [13]
  % inhibition: 70%
AR mRNA [1]; [14]
  % inhibition: 54%

## 549458 (kG*kT*kT*dG*dA*dT*dT*dT*dA*dA*dT*dG*dG*kT*kT*kG) [compound 549458]
AR mRNA [1]; 250 nM ASO, ~24 h, Table 7
  % inhibition: 71%
AR mRNA [1]; 500 nM ASO, electroporation, ~24 h, Table 2
  % inhibition: 95%
AR mRNA [1]; 500 nM ASO, ~24 h, Table 5
  % inhibition: 94%
AR mRNA [1]; 500 nM ASO, ~24 h, Table 16
  % inhibition: 60%
AR mRNA [1]; 500 nM ASO, ~24 h, Table 17
  % inhibition: 46%
AR mRNA [1]; 500 nM ASO, ~24 h, Table 18
  % inhibition: 48%
AR mRNA [1]; 1,000 nM ASO, ~24 h, Table 13
  % inhibition: 87%
AR mRNA [1]; 1,000 nM ASO, ~24 h, Table 26
  % inhibition: 79%
AR mRNA [1]; [6]
  % inhibition: 50%
AR mRNA [1]; [7]
  % inhibition: 54%
AR mRNA [1]; [8]
  % inhibition: 47%
AR mRNA [1]; [9]
  % inhibition: 39%
AR mRNA [1]; [10]
  % inhibition: 51%
AR mRNA [1]; [11]
  % inhibition: 88%
AR mRNA [1]; [12]
  % inhibition: 76%
AR mRNA [1]; [13]
  % inhibition: 76%
AR mRNA [1]; [14]
  % inhibition: 65%

## CNC(=O)c1ccc(N2C(=S)N(c3ccc(C#N)c(C(F)(F)F)c3)C(=O)C2(C)C)cc1F [MDV3100, 4-(3-(4-cyano-3-(trifluoromethyl)phenyl)-5,5-dimethyl-4-oxo-2-thioxoimidazolidin-1-yl)-2-fluoro-N-methylbenzamide, reference compound]
AR mRNA [2]; 0.04 μM
  Percent expression of AR compared to the control group in 8 hours: 99%
  Percent expression of AR compared to the control group in 24 hours: 88%
  Percent expression of AR compared to the control group in 48 hours: 94%
AR mRNA [2]; 0.2 μM
  Percent expression of AR compared to the control group in 8 hours: 100%
  Percent expression of AR compared to the control group in 24 hours: 99%
  Percent expression of AR compared to the control group in 48 hours: 94%
AR mRNA [2]; 1 μM
  Percent expression of AR compared to the control group in 8 hours: 92%
  Percent expression of AR compared to the control group in 24 hours: 96%
  Percent expression of AR compared to the control group in 48 hours: 113%
AR mRNA [2]; 5.0 μM
  Percent expression of AR compared to the control group in 24 hours: 84%
  Percent expression of AR compared to the control group in 48 hours: 126%
AR mRNA [2]
  AR expression: increased AR expression at the 48 hour time-point
C4-2B cells; Table 46
  inhibition at 1 µM: 38%
C4-2B cells; Table 47
  inhibition at 1 µM: 46%

## GGCTACTACGCCGTCA (3-10-3 (S)-cEt gapmer, chemistry not fully specified) [ISIS 549148, reference compound]
AR mRNA [2]; 0.04 μM
  Percent expression of AR compared to the control group in 8 hours: 116%
  Percent expression of AR compared to the control group in 24 hours: 87%
  Percent expression of AR compared to the control group in 48 hours: 98%
AR mRNA [2]; 0.2 μM
  Percent expression of AR compared to the control group in 8 hours: 105%
  Percent expression of AR compared to the control group in 24 hours: 85%
  Percent expression of AR compared to the control group in 48 hours: 90%
AR mRNA [2]; 1 μM
  Percent expression of AR compared to the control group in 24 hours: 87%
  Percent expression of AR compared to the control group in 48 hours: 87%
AR mRNA [2]; 5.0 μM
  Percent expression of AR compared to the control group in 8 hours: 110%
  Percent expression of AR compared to the control group in 24 hours: 107%
  Percent expression of AR compared to the control group in 48 hours: 99%

## GTTGATTTAATGGTTG (all phosphorothioate, sugars by position not given here; further chemistry not fully specified) [ISIS 549458]
C4-2B cells; 0.1 μM ASO + MDV3100 1 μM, 6 days
  Percent inhibition of C4-2B cell proliferation with 0.1 μM ASO: 75%
C4-2B cells; 0.1 μM ASO + MDV3100 […], 6 days
  Percent inhibition of C4-2B cell proliferation with 0.1 μM ASO: 59%
C4-2B cells; 0.1 μM ASO, MDV3100 0 μM, 6 days
  Percent inhibition of C4-2B cell proliferation with 0.1 μM ASO: 39%
C4-2B cells; 0.2 μM ASO + MDV3100 1 μM, 6 days
  Percent inhibition of C4-2B cell proliferation with 0.2 μM ASO: 79%
C4-2B cells; 0.2 μM ASO + MDV3100 […], 6 days
  Percent inhibition of C4-2B cell proliferation with 0.2 μM ASO: 75%
C4-2B cells; 0.2 μM ASO, MDV3100 0 μM, 6 days
  Percent inhibition of C4-2B cell proliferation with 0.2 μM ASO: 74%
C4-2B cells; C4-2B cells
  synergy with MDV3100: synergistic with MDV3100
C4-2B cells; C4-2B cells, 0.1 μM ASO in combination with […] MDV3100
  cell proliferation inhibited, combination: 75%
C4-2B cells; C4-2B cells, ASO alone at 0.1 μM
  inhibited cell proliferation, ASO alone: 39%
C4-2B cells; C4-2B cells, ASO alone, 6 days, Table 46 (0.1 μM ASO)
  reduced cell proliferation, ASO alone: 74%
C4-2B cells; C4-2B cells, versus equal molar ISIS 554221 + MDV3100
  prostate cancer cell proliferation, ASO in combination with MDV3100: inhibited prostate cancer cell proliferation to a greater extent than an equal molar concentration of ISIS 554221 in combination of MDV3100

## TGATTTAATGGTTGCA [ISIS 569236] (cEt/MOE gapmer chemistry, further chemistry not given here)
full-length AR
  full-length AR protein (western blot): significantly reduced
AR mRNA [2]; 0.04 μM
  Percent expression of AR compared to the control group in 8 hours: 100%
  Percent expression of AR compared to the control group in 48 hours: 80%
AR mRNA [2]; 0.2 μM
  Percent expression of AR compared to the control group in 8 hours: 87%
  Percent expression of AR compared to the control group in 24 hours: 35%
  Percent expression of AR compared to the control group in 48 hours: 19%
AR mRNA [2]; 1 μM
  Percent expression of AR compared to the control group in 8 hours: 84%
  Percent expression of AR compared to the control group in 24 hours: 15%
  Percent expression of AR compared to the control group in 48 hours: 7%
AR mRNA [2]; 5.0 μM
  Percent expression of AR compared to the control group in 8 hours: 58%
  Percent expression of AR compared to the control group in 24 hours: 5%
  Percent expression of AR compared to the control group in 48 hours: 2%
AR mRNA [2]
  AR expression: reduced AR expression in the cells relative to the control set
testosterone
  Serum testosterone level: 12.7 ng/mL
[3]; sc, 40 mg/kg
  Oligonucleotide concentration, Kidney: 1282 μg/g tissue
  Oligonucleotide concentration, Liver: 898 μg/g tissue
AR mRNA [4]
  AR RNA expression inhibited compared to the control group: 19%
[5]
  HCT: 44%
  Hemoglobin: 13.1 g/dL
  Platelets: 358000 µL
  RBC: 5.7e+06 µL
  WBC: 14400 µL

## TTGATTTAATGGTTGC [ISIS 560131] (MOE and (S)-cEt gapmer chemistry, further chemistry not given here)
full-length AR
  full-length AR protein (western blot): significantly reduced
AR mRNA [2]; 0.04 μM
  Percent expression of AR compared to the control group in 8 hours: 110%
  Percent expression of AR compared to the control group in 24 hours: 47%
  Percent expression of AR compared to the control group in 48 hours: 33%
AR mRNA [2]; 0.2 μM
  Percent expression of AR compared to the control group in 8 hours: 85%
  Percent expression of AR compared to the control group in 24 hours: 18%
  Percent expression of AR compared to the control group in 48 hours: 5%
AR mRNA [2]; 1 μM
  Percent expression of AR compared to the control group in 8 hours: 68%
  Percent expression of AR compared to the control group in 24 hours: 5%
  Percent expression of AR compared to the control group in 48 hours: 6%
AR mRNA [2]; 5.0 μM
  Percent expression of AR compared to the control group in 8 hours: 45%
  Percent expression of AR compared to the control group in 24 hours: 4%
  Percent expression of AR compared to the control group in 48 hours: 4%
AR mRNA [2]
  AR expression: reduced AR expression in the cells relative to the control set
testosterone
  Serum testosterone level: 14.7 ng/mL
[3]
  K/L ratio: 2.6
[3]; sc, 40 mg/kg
  Oligonucleotide concentration, Liver: 793 μg/g tissue
AR mRNA [4]
  AR RNA expression inhibited compared to the control group: 35%
[5]
  HCT: 44%
  Hemoglobin: 13.1 g/dL
  Platelets: 392000 µL
  RBC: 5.8e+06 µL
  WBC: 11300 µL
